Results from ChEMBL document CHEMBL1141559, “Alpha-hydroxy amides as a novel class of bradykinin B1 selective antagonists” (Bioorg Med Chem Lett, 2008).

Columns and labels:
B1 bradykinin receptor [1] = target: T1, B1 bradykinin receptor (Homo sapiens, UniProt P46663); test: Binding affinity to human bradykinin B1 receptor expressed in CHO cells; type: cell-based
T1 sequence (P46663 whole entry): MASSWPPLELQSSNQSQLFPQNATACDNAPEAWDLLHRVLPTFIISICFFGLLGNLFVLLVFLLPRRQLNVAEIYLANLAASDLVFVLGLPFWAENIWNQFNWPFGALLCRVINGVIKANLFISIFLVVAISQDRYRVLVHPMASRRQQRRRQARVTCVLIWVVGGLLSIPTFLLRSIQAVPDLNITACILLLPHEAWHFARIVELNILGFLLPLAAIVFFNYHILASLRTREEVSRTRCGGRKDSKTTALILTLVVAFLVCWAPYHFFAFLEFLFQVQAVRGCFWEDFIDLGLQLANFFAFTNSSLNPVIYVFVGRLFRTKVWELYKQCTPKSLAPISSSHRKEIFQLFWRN

[2] = Oral bioavailability in Sprague-Dawley rat at 10 mg/kg; type: ADME, organism-based; conditions: in vivo
[3] = Half life in Sprague-Dawley rat at 10 mg/kg, po or 2 mg/kg, iv; type: ADME, organism-based; conditions: in vivo
[4] = Clearance in Sprague-Dawley rat at 10 mg/kg, po or 2 mg/kg, iv; type: ADME, organism-based; conditions: in vivo
[5] = Volume of distribution in Sprague-Dawley rat at 10 mg/kg, po or 2 mg/kg, iv; type: ADME, organism-based; conditions: in vivo, read-out: Vdss
[6] = Half life in Beagle dog at 0.25 mg/kg, iv; type: ADME, organism-based, Canis lupus familiaris; set-up: dose 0.25 mg/kg, route intravenous; conditions: in vivo
[7] = Clearance in Beagle dog at 0.25 mg/kg, iv; type: ADME, organism-based, Canis lupus familiaris; set-up: dose 0.25 mg/kg, route intravenous; conditions: in vivo
[8] = Volume of distribution in Beagle dog at 0.25 mg/kg, iv; type: ADME, organism-based, Canis lupus familiaris; set-up: dose 0.25 mg/kg, route intravenous; conditions: in vivo
Cytochrome P450 3A4 = Cytochrome P450 3A4 (Homo sapiens, UniProt P08684); test: Inhibition of CYP3A4; type: ADME
Cytochrome P450 2C9 = Cytochrome P450 2C9 (Homo sapiens, UniProt P11712); test: Inhibition of CYP2C9; type: ADME
Cytochrome P450 2D6 = Cytochrome P450 2D6 (Homo sapiens, UniProt P10635); test: Inhibition of CYP2D6; type: ADME
B1 bradykinin receptor [9] = target: T1, B1 bradykinin receptor; test: […] human bradykinin B1 receptor by FLIPR assay
LLC-PK1 = test: Ratio of permeability from basolateral to apical over apical to basolateral side of pig MDR1 transfected LLC-PK1 cells; type: ADME, cell-based, Sus scrofa
[10] = Apparent permeability across pig LLC-PK1 cells; type: ADME, cell-based, Sus scrofa
[11] = Oral bioavailability in Beagle dog at 3 mg/kg by cassette dosing; type: ADME, organism-based, Canis lupus familiaris; conditions: in vivo
[12] = Half life in Beagle dog at 3 mg/kg, po or 1 mg/kg, iv by cassette dosing; type: ADME, organism-based, Canis lupus familiaris; conditions: in vivo
[13] = Clearance in Beagle dog at 3 mg/kg, po or 1 mg/kg, iv by cassette dosing; type: ADME, organism-based, Canis lupus familiaris; conditions: in vivo
[14] = Oral bioavailability in rhesus monkey at 1 mg/kg; type: ADME, organism-based, Macaca mulatta; conditions: in vivo
[15] = Half life in rhesus monkey at 1 mg/kg, po or 1 mg/kg, iv; type: ADME, organism-based, Macaca mulatta; conditions: in vivo
[16] = Clearance in rhesus monkey at 1 mg/kg, po or 1 mg/kg, iv; type: ADME, organism-based, Macaca mulatta; conditions: in vivo

Sequence of Cytochrome P450 3A4 (P08684 whole entry): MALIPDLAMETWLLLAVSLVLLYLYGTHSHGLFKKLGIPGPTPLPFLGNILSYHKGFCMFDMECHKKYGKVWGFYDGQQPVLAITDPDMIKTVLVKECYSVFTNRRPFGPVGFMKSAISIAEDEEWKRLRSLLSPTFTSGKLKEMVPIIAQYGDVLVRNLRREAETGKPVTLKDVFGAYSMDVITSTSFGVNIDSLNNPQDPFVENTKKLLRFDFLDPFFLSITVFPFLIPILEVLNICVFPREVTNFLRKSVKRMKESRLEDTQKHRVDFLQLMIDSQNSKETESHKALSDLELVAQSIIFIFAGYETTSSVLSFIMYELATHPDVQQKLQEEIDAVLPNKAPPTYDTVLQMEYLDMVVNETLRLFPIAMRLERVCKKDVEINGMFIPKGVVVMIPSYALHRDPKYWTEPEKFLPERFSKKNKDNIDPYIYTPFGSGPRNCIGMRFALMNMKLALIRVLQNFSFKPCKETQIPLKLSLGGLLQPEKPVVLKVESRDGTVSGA
Sequence of Cytochrome P450 2C9 (P11712 whole entry): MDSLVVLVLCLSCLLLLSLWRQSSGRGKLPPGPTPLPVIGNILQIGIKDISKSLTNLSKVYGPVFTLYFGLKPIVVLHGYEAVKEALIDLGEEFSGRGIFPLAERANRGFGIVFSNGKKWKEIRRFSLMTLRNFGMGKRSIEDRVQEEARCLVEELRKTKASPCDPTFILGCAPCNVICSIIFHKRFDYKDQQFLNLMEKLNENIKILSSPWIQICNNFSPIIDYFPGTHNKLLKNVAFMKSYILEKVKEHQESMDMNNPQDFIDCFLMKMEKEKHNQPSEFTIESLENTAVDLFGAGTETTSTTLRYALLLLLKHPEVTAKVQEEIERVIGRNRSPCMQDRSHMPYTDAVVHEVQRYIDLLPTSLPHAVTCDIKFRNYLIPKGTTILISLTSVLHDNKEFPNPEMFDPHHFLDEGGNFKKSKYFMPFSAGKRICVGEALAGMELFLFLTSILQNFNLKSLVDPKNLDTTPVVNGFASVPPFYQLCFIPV
Sequence of Cytochrome P450 2D6 (P10635 whole entry): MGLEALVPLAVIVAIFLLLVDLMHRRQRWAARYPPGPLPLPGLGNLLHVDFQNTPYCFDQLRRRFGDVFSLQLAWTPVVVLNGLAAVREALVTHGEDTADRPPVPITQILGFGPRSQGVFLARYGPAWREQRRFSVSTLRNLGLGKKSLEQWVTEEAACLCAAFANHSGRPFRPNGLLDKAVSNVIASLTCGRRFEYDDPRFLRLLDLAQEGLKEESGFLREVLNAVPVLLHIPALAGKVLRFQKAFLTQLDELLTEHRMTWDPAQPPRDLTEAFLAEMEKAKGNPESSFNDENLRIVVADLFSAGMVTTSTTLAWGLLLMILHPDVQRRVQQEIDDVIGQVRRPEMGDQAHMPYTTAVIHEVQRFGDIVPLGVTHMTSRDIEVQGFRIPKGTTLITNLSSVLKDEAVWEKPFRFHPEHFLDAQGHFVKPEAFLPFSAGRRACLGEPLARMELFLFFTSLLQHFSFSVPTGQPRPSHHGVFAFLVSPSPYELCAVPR

Row | Structure (SMILES) | Ki (B1 bradykinin receptor [1]) [nM] | half-life [6] [h] | clearance [7] [mL/min/kg] | Vd [8] [L/kg] | Ratio (LLC-PK1) | Papp [10] [×10⁻⁶ cm/s] | also measured
1 | COC(=O)c1c(F)cccc1-c1ccc(CNC(=O)C(C)(C)O)c(F)c1 | 125 |  |  |  |  |  | 
2 | C[C@@H](NC(=O)[C@@](C)(O)C(F)(F)F)c1ncc(-c2cc(Cl)cc(F)c2-c2nnn(C)n2)cc1F | 0.59 | 38 | 0.22 | 0.47 | 2.8 | 36 | bioavailability [2]: 53%; half-life [3]: 27 h; clearance [4]: 1 mL/min/kg; Vd [5]: 0.54 L/kg; IC50 (Cytochrome P450 3A4): > 10000 nM; IC50 (Cytochrome P450 2C9): > 10000 nM; IC50 (Cytochrome P450 2D6): > 10000 nM; IC50 (B1 bradykinin receptor [9]): 4.9 nM
3 | COC(=O)c1c(F)cccc1-c1ccc(CNC(=O)C(O)(C(F)(F)F)C(F)(F)F)c(F)c1 | 95 |  |  |  |  |  | 
4 | COC(=O)c1c(F)cccc1-c1ccc(CNC(=O)[C@@](C)(O)C(F)(F)F)c(F)c1 | 24.5 | 1.4 | 16 | 1.2 | 1.6 | 32 | IC50 (B1 bradykinin receptor [9]): 43.6 nM
5 | Cc1noc(-c2c(F)cc(Cl)cc2-c2cnc([C@@H](C)NC(=O)[C@@](C)(O)C(F)(F)F)c(F)c2)n1 | 0.66 | 15 | 1 | 1.2 | 1.7 | 35 | bioavailability [2]: 32%; half-life [3]: 1.2 h; clearance [4]: 22 mL/min/kg; Vd [5]: 1.3 L/kg; IC50 (B1 bradykinin receptor [9]): 6.65 nM
6 | COC(=O)c1c(F)cccc1-c1ccc(CNC(=O)CO)c(F)c1 | 516 |  |  |  |  |  | 
7 | COC(=O)c1c(Cl)cc(Cl)cc1-c1cnc([C@@H](C)NC(=O)[C@@](C)(O)C(F)(F)F)c(F)c1 | 0.35 | 3.6 | 3.2 | 0.73 | 1.6 | 23 | bioavailability [2]: 47%; half-life [3]: 5.6 h; clearance [4]: 7.8 mL/min/kg; Vd [5]: 1.2 L/kg; IC50 (B1 bradykinin receptor [9]): 3.93 nM
8 | COC(=O)c1c(F)cccc1-c1ccc(CNC(=O)[C@@H](O)C(F)(F)F)c(F)c1 | 109 |  |  |  |  |  | 
9 | COC(=O)c1c(F)cccc1-c1ccc(CNC(=O)C2(O)CC2)c(F)c1 | 59.1 |  |  |  |  |  | 
10 | COC(=O)c1c(F)cccc1-c1ccc(CNC(=O)[C@H](O)C(F)(F)F)c(F)c1 | 479 |  |  |  |  |  | 
11 | COC(=O)c1c(F)cccc1-c1ccc(CNC(=O)[C@@H](O)C(C)C)c(F)c1 | 71.5 |  |  |  |  |  | 
12 | COC(=O)c1c(F)cccc1-c1ccc(CNC(=O)[C@H](C)O)c(F)c1 | 660 |  |  |  |  |  | 
13 | COC(=O)c1c(F)cccc1-c1ccc(CNC(=O)[C@@H](O)C(C)(C)C)c(F)c1 | 88.5 |  |  |  |  |  | 
14 | CCC(O)(CC)C(=O)NCc1ccc(-c2cccc(F)c2C(=O)OC)cc1F | 1090 |  |  |  |  |  | 
15 | Cc1nc(-c2c(F)cc(Cl)cc2-c2cnc([C@@H](C)NC(=O)[C@@](C)(O)C(F)(F)F)c(F)c2)no1 |  | 17 | 0.42 | 0.51 |  | 27 | bioavailability [2]: 34%; half-life [3]: 2 h; clearance [4]: 4.9 mL/min/kg; Vd [5]: 0.52 L/kg; bioavailability [11]: 84%; half-life [12]: 11 h; clearance [13]: 0.45 mL/min/kg; bioavailability [14]: 52%; half-life [15]: 1.3 h; clearance [16]: 7.1 mL/min/kg
16 | COC(=O)c1c(F)cccc1-c1ccc(CNC(=O)[C@@](C)(O)C(C)C)c(F)c1 | 83.5 |  |  |  |  |  | 
17 | COC(=O)c1c(F)cccc1-c1ccc(CNC(=O)[C@](C)(O)C(F)(F)F)c(F)c1 | 579 |  |  |  |  |  | 
18 | Cc1noc(-c2c(Cl)cc(Cl)cc2-c2cnc([C@@H](C)NC(=O)[C@@](C)(O)C(F)(F)F)c(F)c2)n1 | 0.79 | 9.5 | 0.91 | 0.66 | 1.3 | 33 | bioavailability [2]: 21%; half-life [3]: 3.9 h; clearance [4]: 20 mL/min/kg; Vd [5]: 1 L/kg; IC50 (B1 bradykinin receptor [9]): 6.65 nM
19 | C[C@@H](NC(=O)[C@@](C)(O)C(F)(F)F)c1ncc(-c2cc(Cl)cc(F)c2-c2nnn(C)n2)cc1Cl | 0.43 | 9.8 | 1.3 | 0.74 | 1.8 | 26 | bioavailability [2]: 71%; half-life [3]: 4.9 h; clearance [4]: 2.4 mL/min/kg; Vd [5]: 0.86 L/kg
20 | COC(=O)c1c(F)cccc1-c1ccc(CNC(=O)[C@@H](C)O)c(F)c1 | 1050 |  |  |  |  |  | 
21 | COC(=O)c1c(F)cccc1-c1ccc(CNC(=O)C2(NC(=O)C(F)(F)F)CC2)c(F)c1 |  |  |  |  | 4.1 |  | 
